Key:
Test in all cases: Post-emergence test, weed control effect
Format in all cases: in vivo
Details in all cases: after 3 weeks
Amaranthus retroflexus = tested on: Amaranthus retroflexus
In short: (§1)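 Score 0-10 (10 = completely dead, 1 = below 20%, 0 = no effect) from fresh-weight growth inhibition, read 3 weeks after a post-emergence spray. Greenhouse pot plants at 2-3 leaves; spray solution acetone/Tween-80/water with 80% vegetable oil methyl ester synergist at 1500 g/ha.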

Rorippa indica = tested on: Rorippa indica
In short: as §1

Chenopodiaceae = tested on: Chenopodiaceae
In short: as §1

Veronica polita = tested on: Veronica polita
In short: as §1

Oc1cc(C(F)(F)F)nnc1-c1c(F)c(F)c(F)c(F)c1F [Compound 55]
10: weed control effect (activity level), Amaranthus retroflexus (Amaranthus retroflexus; dose 1000 g/ha) | weed control effect (activity level), Rorippa indica (Rorippa indica; dose 1000 g/ha) | weed control effect (activity level), Chenopodiaceae (Chenopodiaceae; dose 1000 g/ha) | weed control effect (activity level), Veronica polita (Veronica polita; dose 1000 g/ha)

CCSc1ccc(-c2nnc(C(F)(F)F)cc2O)cn1 [Compound 236]
10: weed control effect (activity level), Amaranthus retroflexus (Amaranthus retroflexus; dose 2000 g/ha) | weed control effect (activity level), Rorippa indica (Rorippa indica; dose 2000 g/ha) | weed control effect (activity level), Chenopodiaceae (Chenopodiaceae; dose 2000 g/ha) | weed control effect (activity level), Veronica polita (Veronica polita; dose 2000 g/ha)

CC(C)COC(=O)Oc1cc(C(F)(F)F)nnc1-c1cccc(C(F)(F)F)c1 [Compound 1-30]
10: weed control effect, Amaranthus retroflexus (activity level) (Amaranthus retroflexus; Dose 3000 g/ha) | weed control effect, Rorippa indica (activity level) (Rorippa indica; Dose 3000 g/ha) | weed control effect, Chenopodiaceae (activity level) (Chenopodiaceae; Dose 3000 g/ha) | weed control effect, Veronica polita (activity level) (Veronica polita; Dose 3000 g/ha)

Cn1nc(C2CC2)cc1-c1nnc(C(F)(F)F)cc1O [Compound 781]
10: weed control effect (activity level), Amaranthus retroflexus (Amaranthus retroflexus; Dose 3000 g/ha) | weed control effect (activity level), Rorippa indica (Rorippa indica; Dose 3000 g/ha) | weed control effect (activity level), Chenopodiaceae (Chenopodiaceae; Dose 3000 g/ha) | weed control effect (activity level), Veronica polita (Veronica polita; Dose 3000 g/ha)

Cc1ccc(-c2nnc(C(F)(F)F)cc2O)c(C)c1 [Compound 77]
10: weed control effect (activity level), Amaranthus retroflexus (Amaranthus retroflexus; dose 2000 g/ha) | weed control effect (activity level), Rorippa indica (Rorippa indica; dose 2000 g/ha) | weed control effect (activity level), Chenopodiaceae (Chenopodiaceae; dose 2000 g/ha) | weed control effect (activity level), Veronica polita (Veronica polita; dose 2000 g/ha)

Cc1ccncc1-c1nnc(C(F)(F)F)cc1O [Compound 975]
10: weed control effect (activity level), Amaranthus retroflexus (Amaranthus retroflexus; Dose 3000 g/ha) | weed control effect (activity level), Rorippa indica (Rorippa indica; Dose 3000 g/ha) | weed control effect (activity level), Chenopodiaceae (Chenopodiaceae; Dose 3000 g/ha) | weed control effect (activity level), Veronica polita (Veronica polita; Dose 3000 g/ha)

O=C(Cc1ccccc1)Oc1cc(C(F)(F)F)nnc1-c1ccc(F)c(F)c1 [Compound 1-94]
10: weed control effect, Amaranthus retroflexus (activity level) (Amaranthus retroflexus; Dose 3000 g/ha) | weed control effect, Rorippa indica (activity level) (Rorippa indica; Dose 3000 g/ha) | weed control effect, Chenopodiaceae (activity level) (Chenopodiaceae; Dose 3000 g/ha) | weed control effect, Veronica polita (activity level) (Veronica polita; Dose 3000 g/ha)

Cn1nccc1-c1nnc(C(F)(F)F)cc1O [Compound 774]
10: weed control effect (activity level), Amaranthus retroflexus (Amaranthus retroflexus; Dose 3000 g/ha) | weed control effect (activity level), Rorippa indica (Rorippa indica; Dose 3000 g/ha) | weed control effect (activity level), Chenopodiaceae (Chenopodiaceae; Dose 3000 g/ha) | weed control effect (activity level), Veronica polita (Veronica polita; Dose 3000 g/ha)

CCc1cccc(-c2nnc(C(F)(F)F)cc2OS(=O)(=O)c2cc3ccccc3s2)c1 [Compound 1-149]
10: weed control effect, Amaranthus retroflexus (activity level) (Amaranthus retroflexus; Dose 3000 g/ha) | weed control effect, Rorippa indica (activity level) (Rorippa indica; Dose 3000 g/ha) | weed control effect, Chenopodiaceae (activity level) (Chenopodiaceae; Dose 3000 g/ha) | weed control effect, Veronica polita (activity level) (Veronica polita; Dose 3000 g/ha)

Cn1ccc2ccc(S(=O)(=O)Oc3cc(C(F)(F)F)nnc3-c3ccc(F)c(F)c3)cc21 [Compound 1-152]
10: weed control effect, Amaranthus retroflexus (activity level) (Amaranthus retroflexus; Dose 3000 g/ha) | weed control effect, Rorippa indica (activity level) (Rorippa indica; Dose 3000 g/ha) | weed control effect, Chenopodiaceae (activity level) (Chenopodiaceae; Dose 3000 g/ha) | weed control effect, Veronica polita (activity level) (Veronica polita; Dose 3000 g/ha)

C=Cc1cc(-c2nnc(C(F)(F)F)cc2O)c(F)cc1Cl [Compound 166]
10: weed control effect (activity level), Amaranthus retroflexus (Amaranthus retroflexus; dose 2000 g/ha) | weed control effect (activity level), Rorippa indica (Rorippa indica; dose 2000 g/ha) | weed control effect (activity level), Chenopodiaceae (Chenopodiaceae; dose 2000 g/ha) | weed control effect (activity level), Veronica polita (Veronica polita; dose 2000 g/ha)

Cc1ccc(-c2nnc(C(F)(F)F)cc2O)cc1F [Compound 56]
10: weed control effect (activity level), Amaranthus retroflexus (Amaranthus retroflexus; dose 1000 g/ha) | weed control effect (activity level), Rorippa indica (Rorippa indica; dose 1000 g/ha) | weed control effect (activity level), Chenopodiaceae (Chenopodiaceae; dose 1000 g/ha) | weed control effect (activity level), Veronica polita (Veronica polita; dose 1000 g/ha)

O=S(=O)(Oc1cc(C(F)(F)F)nnc1-c1ccc(C(F)(F)F)cc1)c1cccc2ccccc12 [Compound 1-144]
10: weed control effect, Amaranthus retroflexus (activity level) (Amaranthus retroflexus; Dose 3000 g/ha) | weed control effect, Rorippa indica (activity level) (Rorippa indica; Dose 3000 g/ha) | weed control effect, Chenopodiaceae (activity level) (Chenopodiaceae; Dose 3000 g/ha) | weed control effect, Veronica polita (activity level) (Veronica polita; Dose 3000 g/ha)

Oc1cc(C(F)(F)F)nnc1-c1cc(C(F)(F)F)ccc1F [Compound 50]
10: weed control effect (activity level), Amaranthus retroflexus (Amaranthus retroflexus; dose 1000 g/ha) | weed control effect (activity level), Rorippa indica (Rorippa indica; dose 1000 g/ha) | weed control effect (activity level), Chenopodiaceae (Chenopodiaceae; dose 1000 g/ha) | weed control effect (activity level), Veronica polita (Veronica polita; dose 1000 g/ha)

NC(=O)c1ccc(S(=O)(=O)Oc2cc(C(F)(F)F)nnc2-c2ccc(C(F)(F)F)cc2)cc1 [Compound 1-141]
10: weed control effect, Amaranthus retroflexus (activity level) (Amaranthus retroflexus; Dose 3000 g/ha) | weed control effect, Rorippa indica (activity level) (Rorippa indica; Dose 3000 g/ha) | weed control effect, Chenopodiaceae (activity level) (Chenopodiaceae; Dose 3000 g/ha) | weed control effect, Veronica polita (activity level) (Veronica polita; Dose 3000 g/ha)

CC(C)Sc1ccc(-c2nnc(C(F)(F)F)cc2O)cc1 [Compound 96]
10: weed control effect (activity level), Amaranthus retroflexus (Amaranthus retroflexus; dose 1000 g/ha) | weed control effect (activity level), Rorippa indica (Rorippa indica; dose 1000 g/ha) | weed control effect (activity level), Chenopodiaceae (Chenopodiaceae; dose 1000 g/ha) | weed control effect (activity level), Veronica polita (Veronica polita; dose 1000 g/ha)

Oc1cc(C(F)(F)F)nnc1-c1ccc(C2CC2)cc1 [Compound 24]
10: weed control effect (activity level), Amaranthus retroflexus (Amaranthus retroflexus; dose 2000 g/ha) | weed control effect (activity level), Rorippa indica (Rorippa indica; dose 2000 g/ha) | weed control effect (activity level), Chenopodiaceae (Chenopodiaceae; dose 2000 g/ha) | weed control effect (activity level), Veronica polita (Veronica polita; dose 2000 g/ha)

Oc1cc(C(F)(F)F)nnc1-c1cccnc1Br [Compound 965]
10: weed control effect (activity level), Amaranthus retroflexus (Amaranthus retroflexus; Dose 3000 g/ha) | weed control effect (activity level), Rorippa indica (Rorippa indica; Dose 3000 g/ha) | weed control effect (activity level), Chenopodiaceae (Chenopodiaceae; Dose 3000 g/ha) | weed control effect (activity level), Veronica polita (Veronica polita; Dose 3000 g/ha)

O=S(=O)(Oc1cc(C(F)(F)F)nnc1-c1ccc(F)cc1)c1ccc(Cl)cc1Cl [Compound 1-133]
10: weed control effect, Amaranthus retroflexus (activity level) (Amaranthus retroflexus; Dose 3000 g/ha) | weed control effect, Rorippa indica (activity level) (Rorippa indica; Dose 3000 g/ha) | weed control effect, Chenopodiaceae (activity level) (Chenopodiaceae; Dose 3000 g/ha) | weed control effect, Veronica polita (activity level) (Veronica polita; Dose 3000 g/ha)

O=C(Oc1cc(C(F)(F)F)nnc1-c1ccc(F)cc1)c1cc(F)cc(F)c1F [Compound 1-93]
10: weed control effect, Amaranthus retroflexus (activity level) (Amaranthus retroflexus; Dose 3000 g/ha) | weed control effect, Rorippa indica (activity level) (Rorippa indica; Dose 3000 g/ha) | weed control effect, Chenopodiaceae (activity level) (Chenopodiaceae; Dose 3000 g/ha) | weed control effect, Veronica polita (activity level) (Veronica polita; Dose 3000 g/ha)

COc1cnn(C)c1-c1nnc(C(F)(F)F)cc1O [Compound 811]
10: weed control effect (activity level), Amaranthus retroflexus (Amaranthus retroflexus; Dose 3000 g/ha) | weed control effect (activity level), Rorippa indica (Rorippa indica; Dose 3000 g/ha) | weed control effect (activity level), Chenopodiaceae (Chenopodiaceae; Dose 3000 g/ha) | weed control effect (activity level), Veronica polita (Veronica polita; Dose 3000 g/ha)

Oc1cc(C(F)(F)F)nnc1C1C=C2C=CC=CC2N1 (stereo not drawn) [Compound 877]
10: weed control effect (activity level), Amaranthus retroflexus (Amaranthus retroflexus; Dose 3000 g/ha) | weed control effect (activity level), Rorippa indica (Rorippa indica; Dose 3000 g/ha) | weed control effect (activity level), Chenopodiaceae (Chenopodiaceae; Dose 3000 g/ha) | weed control effect (activity level), Veronica polita (Veronica polita; Dose 3000 g/ha)

O=[N+]([O-])c1ccc(S(=O)(=O)Oc2cc(C(F)(F)F)nnc2-c2ccc(F)c(F)c2)cc1 [Compound 1-135]
10: weed control effect, Amaranthus retroflexus (activity level) (Amaranthus retroflexus; Dose 3000 g/ha) | weed control effect, Rorippa indica (activity level) (Rorippa indica; Dose 3000 g/ha) | weed control effect, Chenopodiaceae (activity level) (Chenopodiaceae; Dose 3000 g/ha) | weed control effect, Veronica polita (activity level) (Veronica polita; Dose 3000 g/ha)

COc1ccc(-c2nnc(C(F)(F)F)cc2O)cc1 [Compound 93]
10: weed control effect (activity level), Amaranthus retroflexus (Amaranthus retroflexus; dose 1000 g/ha) | weed control effect (activity level), Rorippa indica (Rorippa indica; dose 1000 g/ha) | weed control effect (activity level), Chenopodiaceae (Chenopodiaceae; dose 1000 g/ha) | weed control effect (activity level), Veronica polita (Veronica polita; dose 1000 g/ha)

Oc1cc(C(F)(F)F)nnc1-c1ccc(F)cc1F [Compound 732]
10: weed control effect (activity level), Amaranthus retroflexus (Amaranthus retroflexus; dose 1000 g/ha) | weed control effect (activity level), Rorippa indica (Rorippa indica; dose 1000 g/ha) | weed control effect (activity level), Chenopodiaceae (Chenopodiaceae; dose 1000 g/ha) | weed control effect (activity level), Veronica polita (Veronica polita; dose 1000 g/ha)

Cc1cc(F)ncc1-c1nnc(C(F)(F)F)cc1O [Compound 221]
10: weed control effect (activity level), Amaranthus retroflexus (Amaranthus retroflexus; dose 2000 g/ha) | weed control effect (activity level), Rorippa indica (Rorippa indica; dose 2000 g/ha) | weed control effect (activity level), Chenopodiaceae (Chenopodiaceae; dose 2000 g/ha) | weed control effect (activity level), Veronica polita (Veronica polita; dose 2000 g/ha)

CCS(=O)Oc1cc(C(F)(F)F)nnc1-c1ccc(F)c(F)c1 (stereo not drawn) [Compound 1-165]
10: weed control effect, Amaranthus retroflexus (activity level) (Amaranthus retroflexus; Dose 3000 g/ha) | weed control effect, Rorippa indica (activity level) (Rorippa indica; Dose 3000 g/ha) | weed control effect, Chenopodiaceae (activity level) (Chenopodiaceae; Dose 3000 g/ha) | weed control effect, Veronica polita (activity level) (Veronica polita; Dose 3000 g/ha)

Oc1cc(C(F)(F)F)nnc1-c1cnc(Cl)cc1F [Compound 1007]
10: weed control effect (activity level), Amaranthus retroflexus (Amaranthus retroflexus; Dose 3000 g/ha) | weed control effect (activity level), Rorippa indica (Rorippa indica; Dose 3000 g/ha) | weed control effect (activity level), Chenopodiaceae (Chenopodiaceae; Dose 3000 g/ha) | weed control effect (activity level), Veronica polita (Veronica polita; Dose 3000 g/ha)

Oc1cc(C(F)(F)F)nnc1-c1cc(Cl)cnc1Cl [Compound 992]
10: weed control effect (activity level), Amaranthus retroflexus (Amaranthus retroflexus; Dose 3000 g/ha) | weed control effect (activity level), Rorippa indica (Rorippa indica; Dose 3000 g/ha) | weed control effect (activity level), Chenopodiaceae (Chenopodiaceae; Dose 3000 g/ha) | weed control effect (activity level), Veronica polita (Veronica polita; Dose 3000 g/ha)

CCCCCCCCC(=S)Oc1cc(C(F)(F)F)nnc1-c1ccc(F)cc1 [Compound 1-154]
10: weed control effect, Amaranthus retroflexus (activity level) (Amaranthus retroflexus; Dose 3000 g/ha) | weed control effect, Rorippa indica (activity level) (Rorippa indica; Dose 3000 g/ha) | weed control effect, Chenopodiaceae (activity level) (Chenopodiaceae; Dose 3000 g/ha) | weed control effect, Veronica polita (activity level) (Veronica polita; Dose 3000 g/ha)

Reference: patent publication US12568972B2, “Pyridazinol compounds and derivatives, preparation methods, herbicidal compositions and applications thereof” (Qingdao Kingagroot Chemical Compound Co., Ltd., priority 2018, dated 2026)
